According to patent US11958861B2, “Spirocyclic lactams as JAK2 V617F inhibitors” (Incyte Corporation, priority 2021, dated 2024):
pIC50: −log10 of the molar value. Where a name gives a salt, the structure may show the parent alone.

How the values were obtained:
[1] = biological target: T1, pseudo-kinase domain (JH2, amino-acids 536-812) of human V617F mutant JAK2 (Homo sapiens, UniProt O60674, F794H/V617F/W659A/W777A); assay: JAK2 LanthaScreen JH2-V617F Binding Assay; settings: 1 hour at 25° C.
T1 construct: pseudo-kinase domain (JH2, amino-acids 536-812 with 3 surface mutations W659A, W777A, F794H); purchased BPS Bioscience 79498; host or cells: baculovirus expression system
T1 sequence (O60674 536-812 V617F/W659A/W777A/F794H): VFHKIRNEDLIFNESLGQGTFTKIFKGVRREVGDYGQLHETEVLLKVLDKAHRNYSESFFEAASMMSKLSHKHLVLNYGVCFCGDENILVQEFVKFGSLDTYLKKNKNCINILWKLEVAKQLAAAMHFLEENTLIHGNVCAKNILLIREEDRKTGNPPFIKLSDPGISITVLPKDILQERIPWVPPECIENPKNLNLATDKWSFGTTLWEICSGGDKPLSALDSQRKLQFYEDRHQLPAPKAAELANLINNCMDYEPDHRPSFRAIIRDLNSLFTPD
Method in brief: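 IC50 values came from four-parameter dose-response fits of LanthaScreen signal, read after compounds sat 1 hour at 25° C with 0.26 nM baculovirus-expressed biotinylated protein, 50 nM fluorescent tracer and 0.25 nM streptavidin-Tb cryptate. Non-specific binding was set with 2 mM ATP.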

[2] = biological target: T2, catalytic domain (JH1, amino acids 808-1132) of human JAK2 (Homo sapiens, UniProt O60674); assay: JAK2 HTRF Enzyme Activity Assay; assay type: biochemical; settings: ATP 30 μM, read-out: ENZ 30UMATP
T2 construct: catalytic domain (JH1, amino acids 808-1132) of human JAK2; His (N); purchased BPS Bioscience 40450; host or cells: baculovirus expression system
T2 sequence (O60674 808-1132): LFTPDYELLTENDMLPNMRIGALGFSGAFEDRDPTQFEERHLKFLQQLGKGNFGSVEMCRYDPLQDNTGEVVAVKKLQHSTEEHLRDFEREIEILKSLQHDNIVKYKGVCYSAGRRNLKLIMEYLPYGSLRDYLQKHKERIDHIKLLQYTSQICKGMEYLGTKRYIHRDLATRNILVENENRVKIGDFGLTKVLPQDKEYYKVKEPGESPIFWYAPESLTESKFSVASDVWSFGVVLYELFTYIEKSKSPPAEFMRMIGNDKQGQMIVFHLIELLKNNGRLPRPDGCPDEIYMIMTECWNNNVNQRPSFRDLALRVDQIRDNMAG
Method in brief: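 His-tagged JAK2 JH1 from baculovirus, 0.015 nM, incubated with compound, ATP at 30 μM or 1 mM and 500 nM biotinylated peptide, pH 7.5, 60 min at 25° C. HTRF read-out via Eu-anti-phosphotyrosine and streptavidin-APC after EDTA stop; IC50 from four-parameter dose-response fit.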

[3] = biological target: T3, catalytic domain (JH1, amino acids 826-1132) of human JAK2 (Homo sapiens, UniProt O60674); assay: JAK2 LanthaScreen JH1 Binding Assay; settings: 2 hours at 25° C.
T3 construct: catalytic domain (JH1, amino acids 826-1132) of human JAK2; purchased Carna Biosciences 08-445-20N; host or cells: baculovirus expression system
T3 sequence (O60674 826-1132): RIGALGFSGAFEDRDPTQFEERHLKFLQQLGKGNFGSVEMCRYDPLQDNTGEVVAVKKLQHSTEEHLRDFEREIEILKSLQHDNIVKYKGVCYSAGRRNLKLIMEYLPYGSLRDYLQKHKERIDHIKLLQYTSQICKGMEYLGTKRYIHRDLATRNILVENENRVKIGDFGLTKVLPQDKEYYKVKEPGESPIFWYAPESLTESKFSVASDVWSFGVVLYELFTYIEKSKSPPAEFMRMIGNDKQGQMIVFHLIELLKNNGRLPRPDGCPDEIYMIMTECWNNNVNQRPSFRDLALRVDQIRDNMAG
Method in brief: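 FLAG-tagged biotinylated JAK2 JH1 (1.5 nM) incubated with compounds, 50 nM fluorescent tracer and 0.5 nM streptavidin-Tb in Tris pH 7.5 buffer with MgCl2, BSA, DTT, 2 h at 25 °C.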

[4] = biological target: T4, pseudo-kinase domain (JH2, amino-acids 536-812) of human Wild Type JAK2 (Homo sapiens, UniProt O60674, F794H/W659A/W777A); assay: JAK2 LanthaScreen JH2-WT Binding Assay; settings: 1 hour at 25° C.
T4 construct: pseudo-kinase domain (JH2, amino-acids 536-812 with 3 surface mutations W659A, W777A, F794H); purchased BPS Bioscience 79463; host or cells: baculovirus expression system
T4 sequence (O60674 536-812 W659A/W777A/F794H): as the sequence (O60674 536-812 V617F/W659A/W777A/F794H) above, with F82V counted along it
Method in brief: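 TR-FRET tracer displacement: 0.145 nM biotinylated JH2 protein, 50 nM fluorescent tracer, 0.25 nM streptavidin-Tb, compound dilution series; 50 mM Tris pH 7.5, 10 mM MgCl2, 5 mM DTT; 1 h, 25° C. Non-specific binding with 2 mM ATP. IC50 by 4-parameter fit.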

Compound	pIC50 [1]	pIC50 [2]	pIC50 [3]	pIC50 [4]
CN1C(=O)C2(CCN(C3(CC#N)CCC3)CC2)c2c1cnc1[nH]c(-c3cnn(CC(F)(F)F)c3)c(-c3ccc4c(cnn4C)c3)c21 [Example 33, 2-(1-(6-Methyl-1-(1-methyl-1H-indazol-5-yl)-7-oxo-2-(1-(2,2,2-trifluoroethyl)-1H-pyrazol-4-yl)-6,7-dihydro-3H-spiro[dipyrrolo[2,3-b:3′,2′-d]pyridine-8,4′-piperidin]-1′-yl)cyclobutyl)acetonitrile, trifluoroacetate salt]	≥ 7.00	5.90 to 6.30	5.90 to 6.30	≥ 7.00
[2H]C([2H])([2H])n1cc(-c2[nH]c3ncc4c(c3c2-c2ccc3c(cnn3C)c2)C2(CCN(CCC#N)CC2)C(=O)N4C)cn1 [Example 7, 3-(6-Methyl-1-(1-methyl-1H-indazol-5-yl)-2-(1-(methyl-d3)-1H-pyrazol-4-yl)-7-oxo-6,7-dihydro-3H-spiro[dipyrrolo[2,3-b:3′,2′-d]pyridine-8,4′-piperidin]-1′-yl)propanenitrile]	≥ 7.00	5.60 to 5.90	5.60 to 5.90	≥ 7.00
Cc1ncc(-c2c(-c3cnn(C)c3)[nH]c3ncc4c(c23)C2(CCN(c3ccncn3)CC2)C(=O)N4C)s1 [Example 17, 6-Methyl-2-(1-methyl-1H-pyrazol-4-yl)-1-(2-methylthiazol-5-yl)-1′-(pyrimidin-4-yl)-3,6-dihydro-7H-spiro[dipyrrolo[2,3-b:3′,2′-d]pyridine-8,4′-piperidin]-7-one, trifluoroacetate salt]	6.30 to 7.00	< 5.60	< 5.60	6.30 to 7.00
CN1C(=O)C2(CCN(CCC#N)CC2)c2c1cnc1[nH]c(-c3ccc(CN4CCC(S(C)(=O)=O)CC4)cc3)c(-c3ccc4c(cnn4C)c3)c21 [Example 5, 3-(6-Methyl-1-(1-methyl-1H-indazol-5-yl)-2-(4-((4-(methylsulfonyl)piperidin-1-yl)methyl)phenyl)-7-oxo-6,7-dihydro-3H-spiro[dipyrrolo[2,3-b:3′,2′-d]pyridine-8,4′-piperidin]-1′-yl)propanenitrile trifluoroacetate salt]	≥ 7.00	5.90 to 6.30	5.90 to 6.30	≥ 7.00
CN1C(=O)C2(CCOCC2)c2c1cnc1[nH]c(-c3ccc(CN4CCC(S(C)(=O)=O)CC4)cc3)c(-c3ccccc3)c21 [Example 1, 6-Methyl-2-(4-((4-(methylsulfonyl)piperidin-1-yl)methyl)phenyl)-1-phenyl-2′,3,3′,5′,6,6′-hexahydro-7H-spiro[dipyrrolo[2,3-b:3′,2′-d]pyridine-8,4′-pyran]-7-one]	≥ 7.00	5.60 to 5.90	5.60 to 5.90	≥ 7.00
CN1C(=O)C2(CCN(C3(CC#N)CCC3)CC2)c2c1cnc1[nH]c(-c3cnn(C)c3)c(-c3ccc4c(cnn4C)c3)c21 [Example 31, 2-(1-(6-Methyl-1-(1-methyl-1H-indazol-5-yl)-2-(1-methyl-1H-pyrazol-4-yl)-7-oxo-6,7-dihydro-3H-spiro[dipyrrolo[2,3-b:3′,2′-d]pyridine-8,4′-piperidin]-1′-yl)cyclobutyl)acetonitrile, trifluoroacetate salt]	≥ 7.00	6.30 to 7.00	6.30 to 7.00	≥ 7.00
CN1C(=O)C2(CCN(C3(CC#N)CCC3)CC2)c2c1cnc1[nH]c(-c3cnn(CC(C)(C)O)c3)c(-c3ccc4c(cnn4C)c3)c21 [Example 32, 2-(1-(2-(1-(2-Hydroxy-2-methylpropyl)-1H-pyrazol-4-yl)-6-methyl-1-(1-methyl-1H-indazol-5-yl)-7-oxo-6,7-dihydro-3H-spiro[dipyrrolo[2,3-b:3′,2′-d]pyridine-8,4′-piperidin]-1′-yl)cyclobutyl)acetonitrile, trifluoroacetate salt]	≥ 7.00	6.30 to 7.00	6.30 to 7.00	≥ 7.00
[2H]C([2H])([2H])n1ncc2cc(-c3c(-c4cnn(C)c4)[nH]c4ncc5c(c34)C3(CC4(CCN(C(=O)OC)CC4)C3)C(=O)N5C)ccc21 [Example 58, Methyl 6-methyl-2-(1-methyl-1H-pyrazol-4-yl)-1-(1-(methyl-d3)-1H-indazol-5-yl)-7-oxo-6,7-dihydro-3H-dispiro[dipyrrolo[2,3-b:3′,2′-d]pyridine-8,1′-cyclobutane-3′,4″-piperidine]-1″-carboxylate, trifluoroacetate salt]	≥ 7.00	5.60 to 5.90	5.60 to 5.90	≥ 7.00
CN1C(=O)C2(CCN(C3(CC#N)CCC3)CC2)c2c1cnc1[nH]c(-c3cnn(CCN4CCOCC4)c3)c(-c3ccc4c(cnn4C)c3)c21 [Example 38, 2-(1-(6-Methyl-1-(1-methyl-1H-indazol-5-yl)-2-(1-(2-morpholinoethyl)-1H-pyrazol-4-yl)-7-oxo-6,7-dihydro-3H-spiro[dipyrrolo[2,3-b:3′,2′-d]pyridine-8,4′-piperidin]-1′-yl)cyclobutyl)acetonitrile, trifluoroacetate salt]	≥ 7.00	≥ 7.00	6.30 to 7.00	≥ 7.00
CN1C(=O)C2(CCN(CC3(CC#N)CC3)C2)c2c1cnc1[nH]c(-c3cnn4cccnc34)c(-c3ccc4c(cnn4C)c3)c21 (racemic) [Example 68, 2-(1-((6-Methyl-1-(1-methyl-1H-indazol-5-yl)-7-oxo-2-(pyrazolo[1,5-a]pyrimidin-3-yl)-6,7-dihydro-3H-spiro[dipyrrolo[2,3-b:3′,2′-d]pyridine-8,3′-pyrrolidin]-1′-yl)methyl)cyclopropyl)acetonitrile, trifluoroacetate salt]	≥ 7.00	< 5.60	< 5.60	≥ 7.00
CC(=O)N1CCC(N2CC3(C2)C(=O)N(C)c2cnc4[nH]c(-c5ccc(CN6CCC(S(C)(=O)=O)CC6)cc5)c(-c5ccccc5)c4c23)CC1 [Example 3]	6.30 to 7.00	< 5.60	< 5.60	6.30 to 7.00
CN1C(=O)C2(CCN(CC3(CC#N)CC3)C2)c2c1cnc1[nH]c(-c3ccc4c(c3)OCC(=O)N4)c(-c3ccc4c(cnn4C)c3)c21 (racemic) [Example 67, 2-(1-((6-Methyl-1-(1-methyl-1H-indazol-5-yl)-7-oxo-2-(3-oxo-3,4-dihydro-2H-benzo[b][1,4]oxazin-7-yl)-6,7-dihydro-3H-spiro[dipyrrolo[2,3-b:3′,2′-d]pyridine-8,3′-pyrrolidin]-1′-yl)methyl)cyclopropyl)acetonitrile, trifluoroacetate salt]	≥ 7.00	< 5.60	< 5.60	≥ 7.00
CC(=O)N1CC(CC#N)(N2CCC3(CC2)C(=O)N(C)c2cnc4[nH]c(-c5cnn(C)c5)c(-c5ccccc5)c4c23)C1 [Example 24, 2-(1-Acetyl-3-(6-methyl-2-(1-methyl-1H-pyrazol-4-yl)-7-oxo-1-phenyl-6,7-dihydro-3H-spiro[dipyrrolo[2,3-b:3′,2′-d]pyridine-8,4′-piperidin]-1′-yl)azetidin-3-yl)acctonitrile, trifluoroacetate salt]	≥ 7.00	6.30 to 7.00	5.90 to 6.30	≥ 7.00
